Data as given in publication PMC6774960, “Design, synthesis and biological evaluation of a series of new resveratrol analogues as potential anti-cancer agents” (Royal Society Open Science, 2019).

Key:
[1] = MTT cytotoxicity test, Vero; format: cell-based, African green monkey; settings: African green monkey, Vero cells (normal African green monkey kidney), average of three determinations
Procedure: (§1) Vero cells are non-tumorigenic cell lines and are important raw materials as the research and production of biological products. Vero cells show low tumorigenicity and had been approved for use in the production of human virus vaccines. Thus, Vero cells were chosen as a control for cytotoxicity. All compounds were evaluated for their cell toxicity against Vero and normal human hepatocytes cells line (LO2) using MTT assays.
(§2) The anti-proliferative and cytotoxicity activity was determined using MTT assay. Human cervical carcinoma HeLa cells, human hepatocellular carcinoma HepG2 cells, human lung carcinoma A549 cells were representative in the anti-proliferation assay, which were obtained from the Shanghai Institute of Cell Biology (Shanghai, China). Normal African green monkey kidney Vero cells were a gift from Dr Xiumiao He at Guangxi University for Nationalities. Normal human hepatocytes LO2 cells were a gift from Dr Xing Lin at Guangxi Medical University. The HepG2, Hela, LO2 and Vero cells were cultured in Dulbecco's modified Eagle's medium (DMEM, Gibco) and the A549 cells were cultured in RPMI1640 (Gibco), both media were supplemented with 10% fetal calf serum and antibiotics (100 IU ml^−1 penicillin, 100 IU ml^−1 streptomycin; Amresco).
(§3) Cells were seeded in 96-well microtiter plates at a density of 1 × 10^4 cells well^−1 and incubated with different concentrations of compound (6.25, 12.50, 25.00, 50.00 to 100.00 µM), cisplatin and paclitaxel in RPMI-1640 or DMEM at 37°C with 5% CO2. After 24 h, cell morphology was observed using a light microscope, and then 20 µl of MTT solution (5 mg ml^−1) was added to the well and incubated for 4 h, then cell survival was determined by measuring the optical density (OD) absorbance at a wavelength of 570 nm using an ELISA microplate reader. The inhibition rate (IR) following each compound treatment was determined by the following equation: IR (%) = (1 − ODexp/ODcon) × 100%, where ODexp and ODcon are the OD of the treated and untreated cells, respectively. Cisplatin and paclitaxel were used as positive control drugs.

[2] = system: HeLa cells; test: MTT anti-proliferation assay, HeLa; format: cell-based, human; settings: Homo sapiens, HeLa, 24 h, average of three determinations
Procedure: The 22 synthesized resveratrol compounds were evaluated for anti-proliferative activities against three human cancer cell lines, including HepG2, A549 and HeLa cells, using 3-[4,5-dimethylthiazol-2-yl]-2,5 diphenyl tetrazolium bromide (MTT) assays. Paclitaxel, a well-known tubulin inhibitor, was used as a positive control.
as §2
After 24 h, cell morphology was observed using a light microscope, and then 20 µl of MTT solution (5 mg ml^−1) was added to the well and incubated for 4 h, then cell survival was determined by measuring the optical density (OD) absorbance at a wavelength of 570 nm using an ELISA microplate reader. […] Cisplatin and paclitaxel were used as positive control drugs.

[3] = system: HepG2 cells; test: MTT anti-proliferation assay, HepG2; format: cell-based, human; settings: Homo sapiens, HepG2, 24 h, average of three determinations
Procedure: (§4) The 22 synthesized resveratrol compounds were evaluated for anti-proliferative activities against three human cancer cell lines, including HepG2, A549 and HeLa cells, using 3-[4,5-dimethylthiazol-2-yl]-2,5 diphenyl tetrazolium bromide (MTT) assays. Paclitaxel, a well-known tubulin inhibitor, was used as a positive control. […] Therefore, the inhibitory activity of the compounds depended not only on the 2-position substitution of acrylic acid, but also on the 3-position substitution of acrylic acid.
as §2, §3

[4] = system: A549 cells; test: MTT anti-proliferation assay, A549; format: cell-based, human; settings: Homo sapiens, A549, 24 h, average of three determinations
Procedure: as §4, §2, §3

[5] = MTT cytotoxicity test, LO2; format: cell-based, human; settings: human, LO2 cells (normal human hepatocytes), average of three determinations
Procedure: as §1, §2, §3

## COc1cc(C(=Cc2ccc(Cl)c(Cl)c2)C(=O)O)cc(OC)c1OC [compound a, 3-(3,4-dichlorophenyl)-2-(3,4,5-trimethoxyphenyl) acrylic acid]
other
  melting point: 233 to 235 °C
[1]
  CC50 at 24 h: 28.2 ± 0.5 µM
[2]
  IC50: 27 ± 2 µM
[3]
  IC50: 50 ± 4 µM
[4]
  IC50: 34 ± 2 µM
[5]
  CC50 at 24 h: 27 ± 1 µM

## COc1cc(C(=Cc2c(Cl)cccc2Cl)C(=O)O)cc(OC)c1OC [compound b, 3-(2,6-dichlorophenyl)-2-(3,4,5-trimethoxyphenyl) acrylic acid]
other
  melting point: 217 to 218 °C
[1]
  CC50 at 24 h: > 100 µM
[2]
  IC50: 32 ± 3 µM
[3]
  IC50: 74 ± 4 µM
[4]
  IC50: 46 ± 3 µM
[5]
  CC50 at 24 h: 92 ± 2 µM

## COc1cc(C(=Cc2ccc(Cl)cc2Cl)C(=O)O)cc(OC)c1OC [compound c, 3-(2,4-dichlorophenyl)-2-(3,4,5-trimethoxyphenyl) acrylic acid]
other
  melting point: 228 °C
[1]
  CC50 at 24 h: 71 ± 2 µM
[2]
  IC50: 46 ± 3 µM
[3]
  IC50: 30 ± 3 µM
[4]
  IC50: 30 ± 1 µM
[5]
  CC50 at 24 h: > 100 µM

## COc1cc(C(=Cc2cc([N+](=O)[O-])ccc2Cl)C(=O)O)cc(OC)c1OC [compound d, 3-(2-chloro-5-nitrophenyl)-2-(3,4,5-trimethoxyphenyl) acrylic acid]
other
  melting point: 247 to 248 °C
[1]
  CC50 at 24 h: > 100 µM
[2]
  IC50: 62 ± 3 µM
[3]
  IC50: > 100 µM
[4]
  IC50: > 100 µM
[5]
  CC50 at 24 h: 93 ± 2 µM

## COc1cc(C(=Cc2ccccc2OC(F)(F)F)C(=O)O)cc(OC)c1OC [compound e, 3-(2-(trifluoromethoxy)phenyl)-2-(3,4,5-trimethoxyphenyl) acrylic acid]
other
  melting point: 164 °C
[1]
  CC50 at 24 h: 82 ± 2 µM
[2]
  IC50: 61 ± 3 µM
[3]
  IC50: > 100 µM
[4]
  IC50: > 100 µM
[5]
  CC50 at 24 h: > 100 µM

## COc1cc(C(=Cc2ccc(OC(F)(F)F)cc2)C(=O)O)cc(OC)c1OC [compound f, 3-(4-(trifluoromethoxy)phenyl)-2-(3,4,5-trimethoxyphenyl) acrylic acid]
other
  melting point: 208 °C
[1]
  CC50 at 24 h: > 100 µM
[2]
  IC50: 20 ± 3 µM
[3]
  IC50: 18.7 ± 0.9 µM
[4]
  IC50: 19 ± 2 µM
[5]
  CC50 at 24 h: > 100 µM

## COc1cc(C(=Cc2cccc(OC(F)(F)F)c2)C(=O)O)cc(OC)c1OC [compound g, 3-(3-(trifluoromethoxy)phenyl)-2-(3,4,5-trimethoxyphenyl) acrylic acid]
other
  melting point: 156 to 157 °C
[1]
  CC50 at 24 h: > 100 µM
[2]
  IC50: 73 ± 5 µM
[3]
  IC50: 24 ± 2 µM
[4]
  IC50: 14 ± 4 µM
[5]
  CC50 at 24 h: > 100 µM

## COc1cc(C(=Cc2cccc(C(F)(F)F)c2)C(=O)O)cc(OC)c1OC [compound h, 3-(3-(trifluoromethyl)phenyl)-2-(3,4,5-trimethoxyphenyl) acrylic acid]
other
  melting point: 162 to 164 °C
[1]
  CC50 at 24 h: > 100 µM
[2]
  IC50: 26 ± 4 µM
[3]
  IC50: 47 ± 4 µM
[4]
  IC50: 32 ± 5 µM
[5]
  CC50 at 24 h: 75 ± 4 µM

## COc1cc(C(=Cc2ccccc2C(F)(F)F)C(=O)O)cc(OC)c1OC [compound i, 3-(2-(trifluoromethyl)phenyl)-2-(3,4,5-trimethoxyphenyl) acrylic acid]
other
  melting point: 160 to 162 °C
[1]
  CC50 at 24 h: > 100 µM
[2]
  IC50: 41 ± 4 µM
[3]
  IC50: 42 ± 2 µM
[4]
  IC50: 32 ± 2 µM
[5]
  CC50 at 24 h: > 100 µM

## COc1cc(C(=Cc2ccc(C(F)(F)F)cc2)C(=O)O)cc(OC)c1OC [compound j, 3-(4-(trifluoromethyl)phenyl)-2-(3,4,5-trimethoxyphenyl) acrylic acid]
other
  melting point: 259 °C
[1]
  CC50 at 24 h: > 100 µM
[2]
  IC50: 19 ± 2 µM
[3]
  IC50: 56.66 ± 0.02 µM
[4]
  IC50: 18 ± 3 µM
[5]
  CC50 at 24 h: > 100 µM

## COc1cc(C(=Cc2cc(C(F)(F)F)ccc2Cl)C(=O)O)cc(OC)c1OC [compound k, 3-(2-chloro-5-(trifluoromethyl)phenyl)-2-(3,4,5-trimethoxyphenyl) acrylic acid]
other
  melting point: 258 °C
[1]
  CC50 at 24 h: 71 ± 2 µM
[2]
  IC50: > 100 µM
[3]
  IC50: 100 ± 0.8 µM
[4]
  IC50: > 100 µM
[5]
  CC50 at 24 h: 88 ± 2 µM

## COc1cc(C(=Cc2ccc(OC)c(OC)c2Cl)C(=O)O)cc(OC)c1OC [compound l, 3-(2-chloro-3,4-dimethoxyphenyl)-2-(3,4,5-trimethoxyphenyl) acrylic acid]
other
  melting point: 171 to 173 °C
[1]
  CC50 at 24 h: > 100 µM
[2]
  IC50: 89 ± 4 µM
[3]
  IC50: > 100 µM
[4]
  IC50: > 100 µM
[5]
  CC50 at 24 h: 64 ± 2 µM

## COc1cc(C(=Cc2cc(Cl)ccc2[N+](=O)[O-])C(=O)O)cc(OC)c1OC [compound m, 3-(5-chloro-2-nitrophenyl)-2-(3,4,5-trimethoxyphenyl) acrylic acid]
other
  melting point: 167 to 169 °C
[1]
  CC50 at 24 h: > 100 µM
[2]
  IC50: 60 ± 1 µM
[3]
  IC50: > 100 µM
[4]
  IC50: 34 ± 2 µM
[5]
  CC50 at 24 h: > 100 µM

## COc1cc(C(=Cc2c(Cl)ccc(Cl)c2Cl)C(=O)O)cc(OC)c1OC [compound n, 3-(2,3,6-trichlorophenyl)-2-(3,4,5-trimethoxyphenyl) acrylic acid]
other
  melting point: 203 to 204 °C
[1]
  CC50 at 24 h: 63 ± 2 µM
[2]
  IC50: 20 ± 2 µM
[3]
  IC50: 79 ± 4 µM
[4]
  IC50: 27.2 ± 0.9 µM
[5]
  CC50 at 24 h: 77 ± 1 µM

## COc1ccc(C(=Cc2c(Cl)cccc2Cl)C(=O)O)cc1 [compound o, 3-(2,6-dichlorophenyl)-2-(4-methoxyphenyl) acrylic acid]
other
  melting point: 319 to 320 °C
[1]
  CC50 at 24 h: > 100 µM
[2]
  IC50: 10 ± 2 µM
[3]
  IC50: 48 ± 5 µM
[4]
  IC50: 21.3 ± 0.7 µM
[5]
  CC50 at 24 h: > 100 µM

## COc1ccc(C(=Cc2ccc(OC(F)(F)F)cc2)C(=O)O)cc1 [compound p, 2-(4-methoxyphenyl)-3-(4-(trifluoromethoxy)phenyl) acrylic acid]
other
  melting point: 159 to 160 °C
[1]
  CC50 at 24 h: 93 ± 3 µM
[2]
  IC50: 5.1 ± 0.8 µM
[3]
  IC50: 7.7 ± 0.3 µM
[4]
  IC50: 14 ± 2 µM
[5]
  CC50 at 24 h: 84 ± 2 µM

## CC(=O)O[C@H]1C(=O)[C@@]2(C)[C@H]([C@H](OC(=O)c3ccccc3)[C@]3(O)C[C@H](OC(=O)[C@H](O)[C@@H](NC(=O)c4ccccc4)c4ccccc4)C(C)=C1C3(C)C)[C@]1(OC(C)=O)CO[C@@H]1C[C@@H]2O [paclitaxel, reference compound]
[1]
  CC50 at 24 h: 98 ± 1 µM
[2]
  IC50: 0.7 ± 0.1 µM
[3]
  IC50: 0.39 ± 0.03 µM
[4]
  IC50: 0.17 ± 0.03 µM
[5]
  CC50 at 24 h: > 100 µM
